Measured values reported in article PMC2625337, “Flexible modulation of agonist efficacy at the human A3 adenosine receptor by the imidazoquinoline allosteric enhancer LUF6000” (BMC Pharmacology, 2008).

Tests used:
Format in all cases: biochemical
[1] = target: T1, human A1 adenosine receptor (A1 AR) (Homo sapiens, UniProt P30542); details: high-efficacy agonist
T1 construct: gene ADORA1; full-length receptor stably expressed in CHO cells, membrane preparation
T1 sequence (P30542 1-326): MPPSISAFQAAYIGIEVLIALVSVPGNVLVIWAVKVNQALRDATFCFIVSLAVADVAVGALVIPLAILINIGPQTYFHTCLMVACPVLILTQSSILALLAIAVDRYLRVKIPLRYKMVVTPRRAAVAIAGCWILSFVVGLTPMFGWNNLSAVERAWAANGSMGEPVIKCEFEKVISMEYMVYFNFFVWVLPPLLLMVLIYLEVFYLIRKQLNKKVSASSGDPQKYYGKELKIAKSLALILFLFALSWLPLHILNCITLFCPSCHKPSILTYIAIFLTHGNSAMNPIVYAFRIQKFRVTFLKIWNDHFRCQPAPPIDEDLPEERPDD

[2] = target: T2, human A3 adenosine receptor (A3 AR) (Homo sapiens, UniProt P0DMS8); experiment: […]GTPgammaS binding, CHO membranes
T2 construct: gene ADORA3; full-length receptor stably expressed in CHO cells, membrane preparation
T2 sequence (P0DMS8 1-318): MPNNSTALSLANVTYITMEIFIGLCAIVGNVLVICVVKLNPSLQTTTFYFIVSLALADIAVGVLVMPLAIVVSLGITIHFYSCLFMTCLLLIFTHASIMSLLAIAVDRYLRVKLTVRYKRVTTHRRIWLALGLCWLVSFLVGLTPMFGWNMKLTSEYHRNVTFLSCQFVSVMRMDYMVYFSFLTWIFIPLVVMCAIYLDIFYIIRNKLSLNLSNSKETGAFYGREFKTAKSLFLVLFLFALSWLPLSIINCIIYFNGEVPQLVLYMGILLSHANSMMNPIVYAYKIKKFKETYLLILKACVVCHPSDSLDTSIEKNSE

[3] = target: T2, human A3 adenosine receptor (A3 AR); experiment: […]GTPgammaS binding, CHO membranes; details: alone, no LUF6000; antagonist
[4] = target: T2, human A3 adenosine receptor (A3 AR); experiment: […]GTPgammaS binding, CHO membranes; details: agonist alone, no LUF6000

**Q.** Which “[35S]GTPgammaS binding, CHO membranes” value [1] does the source give for `OC[C@H]1O[C@@H](n2cnc3c(NC4CCCC4)nc(Cl)nc32)[C@H](O)[C@@H]1O` [CCPA, 2-chloro-N^6-cyclopentyladenosine] here?
**A.** high-efficacy agonists CPA and CCPA or a low efficacy agonist MRS541 to activate the A1

**Q.** `CNC(=O)[C@H]1O[C@@H](n2cnc3c(NCc4cccc(I)c4)ncnc32)[C@H](O)[C@@H]1O` [IB-MECA] was tested. Which “[35S]GTPgammaS binding, CHO membranes” value ([2]; agonist) did it give?
**A.** IB-MECA was almost as efficacious as Cl-IB-MECA

**Q.** `Clc1ccc(Nc2nc3ccccc3c3nc(C4CCCCC4)[nH]c23)cc1Cl` [LUF6000, N-(3,4-dichloro-phenyl)-2-cyclohexyl-1H-imidazo [4,5-c]quinolin-4-amine] was tested. Which “[35S]GTPgammaS binding, CHO membranes” value ([2]; allosteric enhancer, tested at 0.1-10 µM with agonists) did it give?
**A.** LUF6000 showed a flexible modulatory effect of efficacy

**Q.** With `OC[C@H]1O[C@@H](n2cnc3c(NCc4cccc(I)c4)nc(Cl)nc32)[C@H](O)[C@@H]1O` [MRS542, 2-chloro-N^6-(3-iodobenzyl)adenosine] as the compound, how does the “Emax (%)” value [3] read?
**A.** 5.6 ± 2.5%

**Q.** How did the “Emax (% of NECA)” value [4] turn out when `O=c1[nH]cnc2c1ncn2[C@@H]1O[C@H](CO)[C@@H](O)[C@H]1O` [inosine] was run?
**A.** < 10%
